Reference: BindingDB's records for doi:10.1021/jm00148a009 (1985)

Target: Prostacyclin synthase (Sus scrofa)
Experiment: Inhibition of porcine aorta prostacyclin PGI-2 synthase by bioassay method

Compound	IC50 [µM]
c1cn(CCOc2ccc(-c3nnn[nH]3)cc2)cn1 [5-[4-(2-Imidazol-1-yl-ethoxy)-phenyl]-1H-tetrazole]	> 100
O=C(O)Cc1ccccc1OCCn1ccnc1 [[2-(2-Imidazol-1-yl-ethoxy)-phenyl]-acetic acid]	> 100
CC(=O)Nc1ccc(OCCn2ccnc2)cc1 [N-[4-(2-Imidazol-1-yl-ethoxy)-phenyl]-acetamide]	> 100
